Reference: patent publication US12692274B2, “Tetrahydroisoquinoline derivatives for the treatment of red blood disorders and inflammatory diseases” (Sanofi, priority 2020, dated 2026)
Values joined by “and” are separate entries in the source; they are usually repeats but may differ in a detail not shown here. Equal entries are not always repeated.

Key:
[1] = system: NQO1 activation in BEAS-2B cells; test: BEAS-2B cellular MTT assay of NQO1 activation, 0.3% HSA; assay type: cell-based; conditions: BEAS+, read-out: BEAS+ EC50
Procedure, shortened: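 BEAS-2B cells (<70% confluent in culture, BEBM/SingleQuots without GA-1000) seeded in collagen plates with 0.3% or 0% HSA, reaching 95-100% confluency after 48 h at 37 °C, 5% CO2; MTT read-out.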

[2] = molecular target: HIS-Keap1 full length / Biotin-Nrf2 (16-mer) (Homo sapiens, UniProt Q14145); test: biochemical
[3] = system: NQO1 activation in BEAS-2B cells; test: BEAS-2B cellular MTT assay of NQO1 activation, 0% HSA; assay type: cell-based; conditions: serum free, read-out: BEAS EC50 (nM) serum free
Procedure, shortened: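 BEAS-2B cells grown in BEBM with BEGM SingleQuots (no GA-1000), kept below 70% confluence, seeded on collagen plates at a density giving 95-100% confluence after 48 h. Plates seeded in medium without HSA (0% HSA condition).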

Sequence of HIS-Keap1 full length / Biotin-Nrf2 (16-mer) (Q14145 whole entry): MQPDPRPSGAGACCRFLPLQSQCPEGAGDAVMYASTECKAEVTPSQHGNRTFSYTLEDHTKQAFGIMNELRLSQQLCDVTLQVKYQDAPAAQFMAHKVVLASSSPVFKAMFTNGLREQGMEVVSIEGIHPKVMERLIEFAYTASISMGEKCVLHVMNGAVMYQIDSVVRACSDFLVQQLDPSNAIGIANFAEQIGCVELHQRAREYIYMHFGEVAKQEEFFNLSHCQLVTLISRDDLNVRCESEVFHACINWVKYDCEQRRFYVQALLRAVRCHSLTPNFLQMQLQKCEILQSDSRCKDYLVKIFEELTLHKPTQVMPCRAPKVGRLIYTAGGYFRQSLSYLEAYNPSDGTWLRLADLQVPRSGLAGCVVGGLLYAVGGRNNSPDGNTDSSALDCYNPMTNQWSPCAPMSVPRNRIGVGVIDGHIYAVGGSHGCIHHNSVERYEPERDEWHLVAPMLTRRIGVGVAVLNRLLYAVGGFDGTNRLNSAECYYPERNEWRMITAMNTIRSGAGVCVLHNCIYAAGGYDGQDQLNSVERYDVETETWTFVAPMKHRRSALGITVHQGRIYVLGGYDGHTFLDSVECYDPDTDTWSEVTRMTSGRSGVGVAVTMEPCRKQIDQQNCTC

SMILES | EC50 [1] | EC50 ([1]; Homo sapiens) [nM] | IC50 [2] | EC50 ([3]; Homo sapiens) [nM] | EC50 [3]
Cc1c2ccc3c1nnn3CCCCCCOc1ccc(nc1)C(=O)N1CCc3ccc(cc3C1)C2CC(=O)O (stereo not drawn) [Compound 227] | 932 nM | 1130 | 2.1 nM | 517 | 568 nM
Cc1c2ccc3c1nnn3CCCCCc1ccc(nc1)C(=O)N1CCc3ccc(cc3C1)C2CC(=O)O (stereo not drawn) [Compound 228] | 667 nM | 771 | 1.3 nM | 524 | 471 nM
Cc1c2ccc3c1nnn3CCCCCCc1ccc(nc1)C(=O)N1CCc3ccc(cc3C1)C2CC(=O)O (stereo not drawn) [Compound 230] | 961 nM | 1090 | 4.8 nM | 384 | 471 nM
C[C@H](C(=O)O)[C@@H]1c2ccc3c(c2)CN(CC3)C(=O)c2ccc(cc2)OCCCCCn2nnc3cc1ccc32 [Compound 231] | 227 nM | 273 | 3.2 nM | 153 | 228 nM
C[C@@H](C(=O)O)[C@H]1c2ccc3c(c2)CN(CC3)C(=O)c2ccc(cc2)OCCCCCn2nnc3cc1ccc32 [Compound 232] | 8.3 nM | 9 | 1.4 nM | 7.2 | 4.6 nM
C[C@H](C(=O)O)[C@H]1c2ccc3c(c2)CN(CC3)C(=O)c2ccc(cc2)OCCCCCn2nnc3cc1ccc32 [Compound 234] | 5840 nM | 3860 | 49.1 nM | 1840 | 1410 nM
CC(C)(C(=O)O)[C@@H]1c2ccc3c(c2)CN(CC3)C(=O)c2c(F)cc(cc2F)OCCCCCCn2nnc3cc1ccc32 [Compound 236] | 248 nM and 220 nM and 190 nM | 286 | 51 nM and 44.4 nM and 44.6 nM | 62.7 | 50.3 nM and 82.1 nM and 84.7 nM
O=C(O)CC1c2cnc(nc2)OCCCCCc2ccc(c(F)c2)C(=O)N2CCc3ccc1cc3C2 (stereo not drawn) [Compound 238] | 603 nM | 572 | 6.2 nM | 571 | 377 nM
O=C(O)CC1c2ccc3c(c2)CN(CC3)C(=O)c2c(F)cc(cc2F)CCCCCCn2nnc3cc1ccc32 (stereo not drawn) [Compound 243] | 104 nM | 71.8 | 2.6 nM | 40.7 | 48.7 nM
Cc1c2ccc3c1nnn3CCCCCCOc1ccc(cc1)C(=O)N1CCc3ccc(cc3C1)C2CC(=O)O (stereo not drawn) [Compound 247] | 47.2 nM | 45.4 | 1.6 nM and 1.7 nM | 29.4 | 26.3 nM
O=C(O)CC1c2ccc3c(c2)CN(CC3)C(=O)c2ccc(cc2F)CCCCCn2nnc3cc1ccc32 (stereo not drawn) [Compound 252] | – | 21.2 | 1.2 nM and 1.3 nM (2×) and 1.4 nM | 15.5 | –
Cc1c2ccc3c1nnn3CCCCCCc1cc(F)c(c(F)c1)C(=O)N1CCc3ccc(cc3C1)C2CC(=O)O (stereo not drawn) [Compound 253] | – | 6.6 | 1.3 nM | 5.4 | –
Cc1c2ccc3c1nnn3CCCCCOc1ccc(c(F)c1)C(=O)N1CCc3ccc(cc3C1)[C@@H]2CC(=O)O [Compound 254] | 22.6 nM | 16.4 | 1.8 nM | 16 | 17.2 nM
C[C@@H](C(=O)O)[C@@H]1c2ccc3c(c2)CN(CC3)C(=O)c2c(F)cc(cc2F)OCCCCCCn2nnc3cc1ccc32 [Compound 256] | – | > 10000 | 86.9 nM | > 10000 | –
C[C@@H](C(=O)O)[C@H]1c2ccc3c(c2)CN(CC3)C(=O)c2c(F)cc(cc2F)OCCCCCCn2nnc3cc1ccc32 [Compound 258] | 2530 nM | 2640 | 4.9 nM | 9080 | 9480 nM
Cc1c2ccc3c1nnn3CCCCCOc1ccc(c(F)c1)C(=O)N1CCc3ccc(cc3C1)[C@H]2CC(=O)O [Compound 259] | 78.5 nM | 47.6 | 4.1 nM | 20.2 | 18.7 nM
Cc1cc2ccc1OCCCCCCn1nnc3c(C)c(ccc31)C(CC(=O)O)c1ccc3c(c1)CN(CC3)C2=O (stereo not drawn) [Compound 260] | 484 nM | 337 | 6 nM | 400 | 403 nM

SMILES | EC50 [1] | EC50 ([1]; Homo sapiens) [nM] | IC50 [2] | EC50 ([3]; Homo sapiens) [nM] | EC50 [3]
Cc1cc2ccc1OCCCCCn1nnc3c(C)c(ccc31)C(CC(=O)O)c1ccc3c(c1)CN(CC3)C2=O (stereo not drawn) [Compound 261] | 113 nM | 198 | 3 nM | 89.8 | 93 nM
Cc1c2ccc3c1nnn3CCCCCc1cc(F)c(c(F)c1)C(=O)N1CCc3ccc(cc3C1)C2CC(=O)O (stereo not drawn) [Compound 263] | – | 20.4 | 2.7 nM and 3 nM | 18.3 | –
Cc1c2ccc3c1nnn3CCCCCCc1ccc(cc1F)C(=O)N1CCc3ccc(cc3C1)C2CC(=O)O (stereo not drawn) [Compound 264] | – | 5.4 | 2.7 nM and 2.9 nM | 3.7 | –
Cc1c2ccc3c1nnn3CCCCCc1ccc(c(F)c1)C(=O)N1CCc3ccc(cc3C1)C2CC(=O)O (stereo not drawn) [Compound 266] | – | 2.6 | 0.5 nM | 2.1 | –
Cc1c2ccc3c1nnn3CCCCCc1ccc(cc1F)C(=O)N1CCc3ccc(cc3C1)C2CC(=O)O (stereo not drawn) [Compound 267] | – | 5.3 | 2.4 nM and 2.3 nM | 3.9 | –
O=C(O)CC1c2ccc(nc2)OCCCCCOc2ccc(c(F)c2)C(=O)N2CCc3ccc1cc3C2 (stereo not drawn) [Compound 268] | – | 561 | 68.1 nM and 70.7 nM | 505 | –
Cc1c2ccc3c1nnn3CCCCCCOc1ccc(cc1F)C(=O)N1CCc3ccc(cc3C1)C2CC(=O)O (stereo not drawn) [Compound 270] | – | 55.9 | 4 nM and 3.6 nM | 56.5 | –
Cc1c2ccc3c1nnn3CCCCCCc1ccc(c(F)c1)C(=O)N1CCc3ccc(cc3C1)C2CC(=O)O (stereo not drawn) [Compound 272] | – | 3.3 | 1.1 nM and 1.3 nM | 2.5 | –
Cc1c2ccc3c1nnn3CCCCCOc1ccc(cc1F)C(=O)N1CCc3ccc(cc3C1)C2CC(=O)O (stereo not drawn) [Compound 275] | – | 85.9 | 1.9 nM | 123 | –
O=C(O)CC1c2ccc3c(c2)CN(CC3)C(=O)c2ccc(cc2)CCCCCn2nnc3cc1ccc32 (stereo not drawn) [Compound 276] | – | 49.3 | 2.2 nM and 2 nM and 2.1 nM | 88.5 | –
O=C(O)CC1c2cnc(nc2)OCCCCCc2ccc(cc2)C(=O)N2CCc3ccc1cc3C2 (stereo not drawn) [Compound 277, 2-(2-oxo-12-oxa-1,14,28-triazapentacyclo[16.5.3.23,6.213,16.021,25]triaconta-3,5,13(28),14,16(27),18(26),19,21(25),29-nonaen-17-yl)acetic Acid] | – | 3350 | 2.5 nM and 1.9 nM and 2.7 nM and 1.7 nM | 459 | –
O=C(O)CC1c2ccc3c(c2)CN(CC3)C(=O)c2ccc(cc2F)CCCCCCn2nnc3cc1ccc32 (stereo not drawn) [Compound 278] | – | 159 | 1.8 nM (2×) and 1.4 nM and 1.3 nM | 136 | –
CC(C)(C(=O)O)C1c2ccc3c(c2)CN(CC3)C(=O)c2ccc(cc2)CCCCCCn2nnc3cc1ccc32 (stereo not drawn) [Compound 279] | – | 10.7 | 2.3 nM and 2.2 nM (2×) and 2.1 nM | 10.8 | –
O=C(O)CC1c2ccc3c(c2)CN(CC3)C(=O)c2ccc(cc2)CCCCCCn2nnc3cc1ccc32 (stereo not drawn) [Compound 280] | – | 114 | 2.3 nM (2×) and 2.8 nM (2×) | 108 | –
Cc1c2ccc3c1nnn3CCCCCOc1ccc(c3ccccc13)C(=O)N1CCc3ccc(cc3C1)C2CC(=O)O (stereo not drawn) [Compound 283] | – | 418 | 1.1 nM and 1.7 nM | 450 | –
Cc1c2ccc3c1nnn3CCCCCCOc1ccc(c3ccccc13)C(=O)N1CCc3ccc(cc3C1)C2CC(=O)O (stereo not drawn) [Compound 284] | – | 22.8 | 0.4 nM and 0.3 nM | 3.4 | –
Cc1c2ccc3c1nnn3CCCCCc1ccc(cc1)C(=O)N1CCc3ccc(cc3C1)[C@@H]2CC(=O)O [Compound 285] | – | 9.8 | 0.3 nM and 0.5 nM | 4.7 | –
